Earlier results, collected in patent publication US20260272955A1, “Controlled Release Formulations of Highly Lipophilic Physiologically Active Substances” (ADD Advanced Drug Delivery Technologies Ltd., priority 2019, published 2026).

Conditions: decimal logarithm of the n-octanol/water partition coefficient; values typically refer to room temperature (25° C.)

For `C=C(C)[C@@H]1CCC(C)=C[C@H]1c1c(O)cc(CCCCC)cc1O` [Canapure PH, 2-[1R-3-methyl-6R-(1-methylethenyl)-2-cyclohexen-1-yl]-5-pentyl-1,3-benzenediol], the “log P” value is listed as “about 6.1”.
